# Experimental data: ChEMBL document CHEMBL1201862, “PubChem BioAssay data set” (2004)
# Calls of active or inactive are those of the source.
# Assays:
# [1] = Vero E6 cell cytotoxicity, dose response, cytotoxicity control for non-replicating M. tuberculosis project, secondary assay (AID 492998); assay type: functional, VeroE6; settings: Vero C1008
# [2] = tested on: Streptococcus sp. 'group A'; test: growth inhibition of control SK(-) GAS strain, dose response, counter-screen for streptokinase expression inhibitor project, luminescence, kanamycin, BacTiterGlo, confirmation (AID 1900); assay type: functional, organism-based
# Streptococcus = test: Group A Streptococcus viability loss, dose response, counter-screen for streptokinase expression inhibitor project, luminescence, BacTiterGlo (AID 1915); assay type: functional, organism-based;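 also: potency for reduction of bacterial viability or growth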
# [3] = target: T1, Short transient receptor potential channel 4 (Mus musculus, UniProt Q9QUQ5); test: mouse TRPC4 channel inhibitors, dose response, cell-based, HEK293 TRPC4/mu-opioid, Fluo-4 calcium (AID 434942); assay type: functional;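 also: potency of inhibitors blocking the TRPC4 calcium response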
# T1 sequence (Q9QUQ5 whole entry): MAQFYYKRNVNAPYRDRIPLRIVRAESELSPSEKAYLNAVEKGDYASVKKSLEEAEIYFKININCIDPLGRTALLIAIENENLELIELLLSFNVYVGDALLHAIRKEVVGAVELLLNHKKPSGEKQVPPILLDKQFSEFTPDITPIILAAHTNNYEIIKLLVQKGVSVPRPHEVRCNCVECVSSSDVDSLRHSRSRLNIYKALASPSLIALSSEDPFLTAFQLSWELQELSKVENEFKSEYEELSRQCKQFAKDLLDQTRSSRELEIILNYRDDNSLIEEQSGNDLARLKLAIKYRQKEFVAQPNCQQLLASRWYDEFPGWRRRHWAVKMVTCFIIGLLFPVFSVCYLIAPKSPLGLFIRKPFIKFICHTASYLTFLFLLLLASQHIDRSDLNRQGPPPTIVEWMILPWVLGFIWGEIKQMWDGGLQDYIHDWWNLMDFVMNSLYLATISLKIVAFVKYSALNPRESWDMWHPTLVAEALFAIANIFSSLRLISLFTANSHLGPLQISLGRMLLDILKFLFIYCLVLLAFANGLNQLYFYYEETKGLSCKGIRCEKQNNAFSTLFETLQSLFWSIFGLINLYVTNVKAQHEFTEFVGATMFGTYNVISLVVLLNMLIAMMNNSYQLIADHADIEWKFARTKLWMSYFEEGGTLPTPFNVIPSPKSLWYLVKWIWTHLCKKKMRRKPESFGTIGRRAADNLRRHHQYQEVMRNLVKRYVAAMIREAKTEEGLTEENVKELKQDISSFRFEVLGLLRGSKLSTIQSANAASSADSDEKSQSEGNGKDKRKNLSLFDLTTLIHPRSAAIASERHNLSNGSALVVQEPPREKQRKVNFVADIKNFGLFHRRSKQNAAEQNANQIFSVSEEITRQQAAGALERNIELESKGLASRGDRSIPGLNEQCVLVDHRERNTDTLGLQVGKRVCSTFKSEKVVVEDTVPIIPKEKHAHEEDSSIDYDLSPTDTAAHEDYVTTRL
# cells = assay type: functional
# [4] = THP-1 cell cytotoxicity, dose response, cytotoxicity control for non-replicating M. tuberculosis project (AID 489025); assay type: functional
# Streptokinase A = target: T2, Streptokinase A (Streptococcus pyogenes serotype M1, UniProt P10520); test: S. pyogenes streptokinase expression inhibitors, potency, dose response, plasminogen activation absorbance, OD405 (AID 1914); assay type: functional, Streptococcus pyogenes M1 GAS;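 also: secreted streptokinase activity via plasminogen activation per viability signal from cell pellet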
# T2 sequence (P10520 whole entry): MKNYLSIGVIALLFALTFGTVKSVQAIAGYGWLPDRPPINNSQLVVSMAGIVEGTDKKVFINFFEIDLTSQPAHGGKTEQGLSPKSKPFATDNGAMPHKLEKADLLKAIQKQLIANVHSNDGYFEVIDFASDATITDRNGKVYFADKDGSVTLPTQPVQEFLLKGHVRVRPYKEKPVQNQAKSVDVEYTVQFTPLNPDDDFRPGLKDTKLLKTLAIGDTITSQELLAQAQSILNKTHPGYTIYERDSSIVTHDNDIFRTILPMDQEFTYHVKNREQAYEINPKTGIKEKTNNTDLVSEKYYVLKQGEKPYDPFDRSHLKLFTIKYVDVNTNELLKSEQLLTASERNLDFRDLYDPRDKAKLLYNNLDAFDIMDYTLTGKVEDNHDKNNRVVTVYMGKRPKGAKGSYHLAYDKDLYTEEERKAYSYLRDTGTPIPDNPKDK
# [5] = cytotoxicity toward NIH3T3 fibroblasts, dose response, counter-screen, cell-based, ATP luminescence, mouse fibroblasts (AID 2010); assay type: functional;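 also: cells exposed to compound for about 90 hours before reading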
# [6] = target: DNA dC->dU-editing enzyme APOBEC-3G (Homo sapiens, UniProt Q9HC16); test: Dose Response confirmation of small molecule APOBEC3G DNA Deaminase Inhibitors via a fluorescence-based single-stranded DNA deaminase assay. [Related pubchem assays (depositor defined):AID493012, AID493028]; assay type: functional
# Sequence of DNA dC->dU-editing enzyme APOBEC-3G (Q9HC16 whole entry): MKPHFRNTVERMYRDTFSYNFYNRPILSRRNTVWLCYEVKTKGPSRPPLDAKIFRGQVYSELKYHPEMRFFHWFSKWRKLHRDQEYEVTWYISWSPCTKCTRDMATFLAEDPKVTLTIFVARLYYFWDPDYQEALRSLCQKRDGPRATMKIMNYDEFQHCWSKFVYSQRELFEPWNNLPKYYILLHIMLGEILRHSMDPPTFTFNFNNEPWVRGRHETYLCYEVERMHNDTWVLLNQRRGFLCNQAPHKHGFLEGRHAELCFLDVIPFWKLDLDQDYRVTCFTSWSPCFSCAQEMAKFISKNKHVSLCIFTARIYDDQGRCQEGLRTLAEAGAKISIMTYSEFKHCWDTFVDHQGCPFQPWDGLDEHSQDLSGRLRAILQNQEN
# Beta-galactosidase = Beta-galactosidase (Escherichia coli, UniProt Q8VNN2); test: PubChem AID 485352; assay type: functional
# Sequence of Beta-galactosidase (Q8VNN2 whole entry): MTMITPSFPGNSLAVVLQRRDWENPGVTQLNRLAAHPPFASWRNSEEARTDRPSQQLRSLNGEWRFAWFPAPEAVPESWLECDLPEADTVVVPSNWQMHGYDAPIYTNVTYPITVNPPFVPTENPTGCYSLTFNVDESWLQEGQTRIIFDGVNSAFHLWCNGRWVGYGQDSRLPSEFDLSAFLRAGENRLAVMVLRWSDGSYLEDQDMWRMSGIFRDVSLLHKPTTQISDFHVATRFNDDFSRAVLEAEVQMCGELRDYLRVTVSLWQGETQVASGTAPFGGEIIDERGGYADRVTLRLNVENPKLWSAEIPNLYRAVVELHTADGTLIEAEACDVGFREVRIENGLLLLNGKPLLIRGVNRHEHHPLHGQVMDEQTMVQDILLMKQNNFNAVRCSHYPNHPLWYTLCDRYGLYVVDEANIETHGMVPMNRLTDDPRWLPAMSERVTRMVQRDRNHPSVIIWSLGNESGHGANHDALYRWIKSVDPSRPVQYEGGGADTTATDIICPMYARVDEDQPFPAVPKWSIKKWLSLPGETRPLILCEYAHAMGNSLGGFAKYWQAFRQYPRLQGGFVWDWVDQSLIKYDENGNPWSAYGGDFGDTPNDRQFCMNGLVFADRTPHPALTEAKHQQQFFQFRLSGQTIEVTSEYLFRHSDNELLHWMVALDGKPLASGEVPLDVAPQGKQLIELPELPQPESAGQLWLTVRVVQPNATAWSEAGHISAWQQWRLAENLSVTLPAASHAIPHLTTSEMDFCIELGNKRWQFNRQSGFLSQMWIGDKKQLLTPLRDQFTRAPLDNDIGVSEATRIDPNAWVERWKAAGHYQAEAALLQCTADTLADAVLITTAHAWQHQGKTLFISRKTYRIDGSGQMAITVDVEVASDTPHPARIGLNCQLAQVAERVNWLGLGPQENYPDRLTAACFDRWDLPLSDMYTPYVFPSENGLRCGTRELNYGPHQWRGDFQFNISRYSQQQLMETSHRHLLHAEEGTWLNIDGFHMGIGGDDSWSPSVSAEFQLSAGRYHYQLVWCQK
# INS1 = test: beta cell apoptosis inhibitors, cytokine rescue, dose response, luminescence, retest (AID 449756); assay type: functional, cell-based; settings: Rattus norvegicus;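 also: cell death triggered by IL-1 beta plus TNF-alpha plus IFN-gamma mixture; protective hits raise ATP signal compared with cytokine alone wells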
# [7] = target: T3, Type-1 angiotensin II receptor (Homo sapiens, UniProt P30556); test: AT1 receptor antagonists, dose response, selectivity assay for APJ receptor antagonist project, cell-based, uHTS hits (AID 463214); assay type: functional;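 also: antagonist potency against angiotensin II stimulated AT1 response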
# T3 sequence (P30556 whole entry): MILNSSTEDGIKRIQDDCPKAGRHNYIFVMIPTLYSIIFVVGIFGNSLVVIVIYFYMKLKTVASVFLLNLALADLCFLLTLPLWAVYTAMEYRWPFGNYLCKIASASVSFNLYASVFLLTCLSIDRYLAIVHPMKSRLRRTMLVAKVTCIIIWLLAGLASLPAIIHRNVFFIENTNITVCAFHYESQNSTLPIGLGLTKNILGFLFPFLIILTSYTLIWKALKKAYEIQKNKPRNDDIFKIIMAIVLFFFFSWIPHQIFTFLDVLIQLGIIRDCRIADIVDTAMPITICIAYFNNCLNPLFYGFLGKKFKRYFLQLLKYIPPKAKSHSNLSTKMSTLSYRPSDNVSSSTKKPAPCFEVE
# [8] = inhibitors of intracellular T. cruzi replication, confirmation, NIH3T3 host cells, beta-gal luminescence (AID 2044); assay type: functional, cell-based;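 also: intracellular parasites grown in NIH/3T3 mouse fibroblasts as host cells; luminescent beta-galactosidase reporter signal from transgenic T. cruzi replicating inside host cells; inhibitors lower the luminescence signal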
# [9] = target: T1, Short transient receptor potential channel 4; test: mouse TRPC4 channel activators, dose response, cell-based, HEK293 TRPC4/mu-opioid, Fluo-4 calcium (AID 434937); assay type: functional
# [10] = Vero cell cytotoxicity, dose response, cytotoxicity control for Vif-APOBEC3G degradation inhibitor project, Vero cells (AID 1117358); assay type: functional; settings: Human immunodeficiency virus 1, Vero
# [11] = target: T4, High affinity choline transporter 1 (Homo sapiens, UniProt Q9GZV3); test: CHT inhibitors, dose response, cell-based, 5-point CRC, membrane potential dye (AID 504840); assay type: functional
# T4 sequence (Q9GZV3 whole entry): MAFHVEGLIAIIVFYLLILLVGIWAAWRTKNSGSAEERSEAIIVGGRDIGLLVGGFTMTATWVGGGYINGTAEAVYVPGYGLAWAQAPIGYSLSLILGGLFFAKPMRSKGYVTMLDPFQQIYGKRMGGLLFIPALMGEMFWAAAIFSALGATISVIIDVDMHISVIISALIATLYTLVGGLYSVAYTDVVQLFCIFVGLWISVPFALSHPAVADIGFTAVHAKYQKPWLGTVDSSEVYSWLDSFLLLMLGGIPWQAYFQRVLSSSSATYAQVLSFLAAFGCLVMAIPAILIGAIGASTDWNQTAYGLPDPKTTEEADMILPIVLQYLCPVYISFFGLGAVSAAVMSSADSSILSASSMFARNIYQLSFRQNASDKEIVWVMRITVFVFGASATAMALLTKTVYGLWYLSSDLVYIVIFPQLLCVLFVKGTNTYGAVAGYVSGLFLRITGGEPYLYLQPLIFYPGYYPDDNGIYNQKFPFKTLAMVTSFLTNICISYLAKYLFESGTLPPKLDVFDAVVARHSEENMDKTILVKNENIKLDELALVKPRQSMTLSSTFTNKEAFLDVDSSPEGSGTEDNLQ
# [12] = microbe, parasite or virus in culture; assay type: functional; settings: Mycobacterium tuberculosis
# CAAX prenyl protease 2 [13] = target: T5, CAAX prenyl protease 2 (Saccharomyces cerevisiae S288c, UniProt Q03530); assay type: biochemical
# T5 sequence (Q03530 whole entry): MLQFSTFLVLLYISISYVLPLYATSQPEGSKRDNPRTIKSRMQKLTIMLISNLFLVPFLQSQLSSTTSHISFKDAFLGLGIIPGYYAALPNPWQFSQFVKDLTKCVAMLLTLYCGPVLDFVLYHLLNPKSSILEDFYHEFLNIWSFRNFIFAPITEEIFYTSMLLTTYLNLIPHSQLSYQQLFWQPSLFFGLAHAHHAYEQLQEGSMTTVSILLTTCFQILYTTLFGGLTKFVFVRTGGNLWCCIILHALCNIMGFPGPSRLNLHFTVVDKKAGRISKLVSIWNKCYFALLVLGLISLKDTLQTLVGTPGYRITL
# CAAX prenyl protease 2 [14] = target: T6, CAAX prenyl protease 2 (Homo sapiens, UniProt Q9Y256); test: human Rce1 protease inhibitors, dose response, biochemical, yeast membranes, quenched-peptide fluorescence, cherry-pick (AID 588849)
# T6 sequence (Q9Y256 whole entry): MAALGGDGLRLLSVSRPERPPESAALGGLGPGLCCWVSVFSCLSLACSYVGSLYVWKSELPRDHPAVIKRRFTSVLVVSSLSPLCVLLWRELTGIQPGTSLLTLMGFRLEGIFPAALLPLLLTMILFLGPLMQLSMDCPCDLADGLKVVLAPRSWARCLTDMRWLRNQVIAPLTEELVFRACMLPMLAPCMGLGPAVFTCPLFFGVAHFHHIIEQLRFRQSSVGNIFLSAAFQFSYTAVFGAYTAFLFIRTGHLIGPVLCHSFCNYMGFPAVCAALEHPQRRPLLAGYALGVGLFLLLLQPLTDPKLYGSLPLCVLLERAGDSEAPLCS
# [15] = target: G-protein coupled receptor 55 (Homo sapiens, UniProt Q9Y2T6); test: GPR55 agonists via beta-arrestin recruitment, primary screen, imaging, U2OS cells, beta-arrestin-GFP redistribution (AID 1961); assay type: functional
# Sequence of G-protein coupled receptor 55 (Q9Y2T6 whole entry): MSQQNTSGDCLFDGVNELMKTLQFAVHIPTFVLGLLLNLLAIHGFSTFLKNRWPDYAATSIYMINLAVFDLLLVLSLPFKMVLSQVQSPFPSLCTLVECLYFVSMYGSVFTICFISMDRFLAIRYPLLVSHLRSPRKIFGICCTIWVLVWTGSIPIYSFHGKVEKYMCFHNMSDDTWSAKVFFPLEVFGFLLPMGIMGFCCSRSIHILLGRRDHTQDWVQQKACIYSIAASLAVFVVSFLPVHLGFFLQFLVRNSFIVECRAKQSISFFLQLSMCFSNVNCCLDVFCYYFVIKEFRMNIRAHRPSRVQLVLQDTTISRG
# [16] = target: Eukaryotic translation initiation factor 4E (Mus musculus, UniProt P63073); test: eIF4E–eIF4G protein interaction inhibitors, dose response, biochemical, TR-FRET (AID 855); assay type: functional;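 also: potency for disrupting eIF4E binding to eIF4GI seen as loss of FRET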
# Sequence of Eukaryotic translation initiation factor 4E (P63073 whole entry): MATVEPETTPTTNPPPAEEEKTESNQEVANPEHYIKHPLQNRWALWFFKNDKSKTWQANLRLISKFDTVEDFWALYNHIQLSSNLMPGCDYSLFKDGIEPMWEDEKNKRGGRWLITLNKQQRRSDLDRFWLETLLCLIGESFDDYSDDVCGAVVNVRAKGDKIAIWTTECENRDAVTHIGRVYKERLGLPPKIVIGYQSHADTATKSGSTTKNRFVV
# [17] = target: T7, Heat shock factor protein 1 (Mus musculus, UniProt P38532); test: HSF1 potentiators in luciferase reporter cells, confirmation, cell-based, NIH3T3, luminescence, dose retest (AID 435004); assay type: functional;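 also: stress induced by proteasome inhibitor MG132 added 30 min after compound; luciferase reporter driven by HSF1 response element in NIH3T3 cells; actives raise luminescence as potentiators of the MG132 stress response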
# T7 sequence (P38532 whole entry): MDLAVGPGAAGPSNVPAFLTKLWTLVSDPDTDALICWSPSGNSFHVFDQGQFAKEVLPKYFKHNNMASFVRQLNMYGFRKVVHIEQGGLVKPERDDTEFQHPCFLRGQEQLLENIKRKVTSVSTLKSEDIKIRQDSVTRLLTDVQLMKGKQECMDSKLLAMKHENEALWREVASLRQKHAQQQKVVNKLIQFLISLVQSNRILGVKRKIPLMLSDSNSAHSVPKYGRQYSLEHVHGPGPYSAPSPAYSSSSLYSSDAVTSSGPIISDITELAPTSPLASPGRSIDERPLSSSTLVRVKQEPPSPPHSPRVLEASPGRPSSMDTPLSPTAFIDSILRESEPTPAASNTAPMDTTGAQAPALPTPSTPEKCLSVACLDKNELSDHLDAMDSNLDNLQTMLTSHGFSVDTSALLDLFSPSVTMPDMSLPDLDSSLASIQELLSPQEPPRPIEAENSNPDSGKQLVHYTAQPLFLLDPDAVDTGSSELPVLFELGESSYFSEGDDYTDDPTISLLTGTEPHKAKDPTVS
# [18] = HEp-2 cell cytotoxicity, dose response, cytotoxicity control for RSV inhibitor project, HTS (AID 2410); assay type: functional; settings: human respiratory syncytial virus
structure (smiles),measurement,setting,value
Cc1ccc(C(=O)Nc2nnc(C3=COCCO3)o2)cc1C,CC50,[1],> 20 µM (active)
same,EC50,[2],5.17 µM (active)
same,EC50,Streptococcus,15.5 µM (active)
same,EC50,[3],0.421 µM (active)
same,IC50,cells,2.03 µM (active)
same,CC50,[4],> 40 µM (active)
same,EC50,Streptokinase A,> 150 µM (not active)
O=C(Nc1nc(-c2ccccn2)cs1)Nc1ccc(F)cc1F,EC50,[5],8.78 µM (active)
same,IC50,[6],65.9 µM (active)
same,EC50,Beta-galactosidase,> 40 µM (inactive)
same,AC50,INS1,3.4 µM (active)
same,EC50,[2],1.16 µM (active)
same,IC50,[7],18.8 µM (active)
same,EC50,Streptococcus,2.33 µM (active)
same,EC50,[8],0.9 µM (active)
CCN1CCN(c2ccc(S(=O)(=O)N3CCOCC3)cc2NC(=O)c2ccccc2SC)CC1,EC50,[9],0.421 µM (active)
COc1cc2ccccc2cc1C(=O)NCC(c1cccs1)N(C)C (configuration not stated),EC50,[9],0.944 µM (active)
Cc1cccc2c1NC(=O)C2=Nc1ccc(Cl)cc1,EC50,Beta-galactosidase,> 40 µM (inactive)
same,IC50,[7],27.9 µM (not active)
CN1CCN(S(=O)(=O)c2ccc(NC(=O)Nc3cccc(Cl)c3)cc2)CC1,CC50,[10],> 40 µM (active)
same,IC50,[11],13.2 µM (active)
CNS(=O)(=O)c1cccc(C(=O)OCC(=O)c2ccc(S(=O)(=O)N3CCCCC3)cc2)c1,EC50,Beta-galactosidase,> 40 µM (inactive)
same,IC50,[7],18.8 µM (active)
Cc1cc(CC(C)C)n(-c2nc3ccccc3c(=O)n2OCC(N)=O)n1,CC50,[12],> 40 µM (active)
same,CC50,[1],> 20 µM (active)
same,IC50,cells,8.85 µM (active)
same,CC50,[4],> 40 µM (active)
CCc1ccc(Nc2n[n+](-c3ccccc3)c(/C=C/c3ccccc3)s2)cc1,AC50,CAAX prenyl protease 2 [13],0.634 µM (active)
same,AC50,CAAX prenyl protease 2 [14],23.8 µM (active)
same,EC50,[15],1.59 µM (active)
NC(=O)C1CCCN(CCc2ccccc2)C1 (configuration not stated),EC50,[9],0.06 µM (active)
CC(/C=N\NC(=O)CN1CCN(S(=O)(=O)c2ccc(C)cc2)CC1)=C\c1ccccc1,IC50,[16],> 64 µM (inactive)
same,AC50,CAAX prenyl protease 2 [13],4.3 µM (active)
same,AC50,CAAX prenyl protease 2 [14],59.3 µM (active)
CCOC(=O)C(=Cc1c[nH]c2ccc(S(=O)(=O)N(C)C)cc12)C(=O)OCC,EC50,[17],45.3 µM (active)
same,CC50,[18],13.4 µM (active)
same,IC50,[11],15.8 µM (active)
